Assay results as given in PubChem BioAssay AID248 (DTP/NCI, 2004).
Several values for one entry are separate records, joined by “and”; a condition that tells them apart may be missing. Equal entries are not always repeated. Inconclusive results and toxic doses are left out.

System: L1210 leukemia ip in BDF1 mice, survival T/C
Test: NCI In Vivo Anticancer Drug Screen. Data for tumor model L1210 Leukemia (intraperitoneal) in B6D2F1 (BDF1) mice
Settings: endpoint: mean survival time, higher = longer survival
Outline: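 Value reflects the ratio of survival in compound-treated mice to survival in vehicle-treated controls, with both groups carrying the same transplanted tumor.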

[1] = dose: 100.0 mg/kg/injection, schedule: Q01DX009 (ip), vehicle: Klucel (hydroxypropylcellulose) (HPC)
[2] = dose: 200.0 mg/kg/injection, schedule: Q01DX009 (ip), vehicle: Klucel (hydroxypropylcellulose) (HPC)
[3] = dose: 25.0 mg/kg/injection, schedule: Q04DX002 (ip), vehicle: saline
[4] = dose: 50.0 mg/kg/injection, schedule: Q04DX002 (ip), vehicle: saline
[5] = dose: 100.0 mg/kg/injection, schedule: Q04DX002 (ip), vehicle: saline
[6] = dose: 100.0 mg/kg/injection, schedule: Q01DX009 (ip), vehicle: saline
[7] = dose: 50.0 mg/kg/injection, schedule: Q04DX003 (ip), vehicle: saline with Tween-80
[8] = dose: 100.0 mg/kg/injection, schedule: Q01DX009 (ip), vehicle: saline with Tween-80
[9] = dose: 100.0 mg/kg/injection, schedule: Q04DX003 (ip), vehicle: saline with Tween-80
[10] = dose: 200.0 mg/kg/injection, schedule: Q01DX009 (ip), vehicle: saline with Tween-80
[11] = dose: 200.0 mg/kg/injection, schedule: Q04DX003 (ip), vehicle: saline with Tween-80
[12] = dose: 400.0 mg/kg/injection, schedule: Q01DX009 (ip), vehicle: saline with Tween-80
[13] = dose: 100.0 mg/kg/injection, schedule: Q04DX002 (ip), vehicle: saline with Tween-80
[14] = dose: 200.0 mg/kg/injection, schedule: Q04DX002 (ip), vehicle: saline with Tween-80
[15] = dose: 400.0 mg/kg/injection, schedule: Q04DX002 (ip), vehicle: saline with Tween-80

`CCC(CCCN(CC)CCc1ccccc1)OC(=O)c1cc(OC)c(OC)c(OC)c1` (stereo unspecified) was tested, and the T/C (dose: 4.68 mg/kg/injection, schedule: Q01DX009 (ip), vehicle: saline) was 106 % of control, the T/C (dose: 9.37 mg/kg/injection, schedule: Q01DX009 (ip), vehicle: saline) was 100 % of control and the T/C (dose: 18.75 mg/kg/injection, schedule: Q01DX009 (ip), vehicle: saline) was 100 % of control. The T/C (dose: 18.75 mg/kg/injection, schedule: Q04DX003 (ip), vehicle: saline) was 118 % of control, the T/C (dose: 37.5 mg/kg/injection, schedule: Q01DX009 (ip), vehicle: saline) was 100 % of control and the T/C (dose: 37.5 mg/kg/injection, schedule: Q04DX003 (ip), vehicle: saline) was 97 % of control. For the same molecule, the T/C (dose: 75.0 mg/kg/injection, schedule: Q01DX009 (ip), vehicle: saline) was 95 % of control and the T/C (dose: 75.0 mg/kg/injection, schedule: Q04DX003 (ip), vehicle: saline) was 103 % of control.

In the case of `O=S(=O)(c1ccc(Cl)cc1)C(Cl)(Cl)Cl`, the T/C [1] is reported as 93 % of control, the T/C [2] is reported as 97 % of control and the T/C (dose: 400.0 mg/kg/injection, schedule: Q01DX009 (ip), vehicle: Klucel (hydroxypropylcellulose) (HPC)) is reported as 96 % of control.

In the case of `CNCCNCC(Cc1ccccc1)c1ccccc1` (stereo unspecified), the T/C [3] is reported as 107 % of control, the T/C [4] is reported as 97 % of control and the T/C [5] is reported as 97 % of control.

For `CCCCCCCCCCCCCCCCCC(=O)[O][Hg][c]1ccccc1`, the T/C (dose: 5.0 mg/kg/injection, schedule: Q01DX001 (ip), vehicle: carboxymethylcellulose (CMC)) was 94 % of control, the T/C (dose: 8.0 mg/kg/injection, schedule: Q01DX015 (ip), vehicle: carboxymethylcellulose (CMC)) was 96 % of control and the T/C (dose: 10.0 mg/kg/injection, schedule: Q01DX001 (ip), vehicle: carboxymethylcellulose (CMC)) was 94 % of control. For the same molecule, the T/C (dose: 10.0 mg/kg/injection, schedule: Q01DX009 (ip), vehicle: saline with Tween-80) was 94 % of control, the T/C (dose: 16.0 mg/kg/injection, schedule: Q01DX015 (ip), vehicle: carboxymethylcellulose (CMC)) was 92 % of control and the T/C (dose: 20.0 mg/kg/injection, schedule: Q01DX001 (ip), vehicle: carboxymethylcellulose (CMC)) was 92 % of control. For the same molecule, the T/C (dose: 20.0 mg/kg/injection, schedule: Q01DX009 (ip), vehicle: saline with Tween-80) was 110 % of control, the T/C (dose: 20.0 mg/kg/injection, schedule: Q04DX003 (ip), vehicle: saline) was 102 % of control and the T/C (dose: 32.0 mg/kg/injection, schedule: Q01DX015 (ip), vehicle: carboxymethylcellulose (CMC)) was 94 % of control. The T/C (dose: 40.0 mg/kg/injection, schedule: Q01DX001 (ip), vehicle: carboxymethylcellulose (CMC)) was 100 % of control and the T/C (dose: 40.0 mg/kg/injection, schedule: Q04DX003 (ip), vehicle: saline) was 98 % of control.

For `Cc1cc2c(cc1C)NC(C)CC(=O)N2` (stereo unspecified), the T/C (dose: 25.0 mg/kg/injection, schedule: Q01DX009 (ip), vehicle: Klucel (hydroxypropylcellulose) (HPC)) was 109 % of control, the T/C (dose: 50.0 mg/kg/injection, schedule: Q01DX009 (ip), vehicle: Klucel (hydroxypropylcellulose) (HPC)) was 98 % of control and the T/C [1] was 104 % of control. For the same molecule, the T/C [6] was 111 % of control, the T/C (dose: 100.0 mg/kg/injection, schedule: Q04DX003 (ip), vehicle: saline) was 96 % of control and the T/C (dose: 133.0 mg/kg/injection, schedule: Q01DX009 (ip), vehicle: Klucel (hydroxypropylcellulose) (HPC)) was 99 % of control. For the same molecule, the T/C [2] was 94 % of control and 124 % of control, the T/C (dose: 200.0 mg/kg/injection, schedule: Q04DX003 (ip), vehicle: saline) was 108 % of control and the T/C (dose: 400.0 mg/kg/injection, schedule: Q04DX003 (ip), vehicle: saline) was 105 % of control.

In the case of `O=C(CC(O)(C(F)(F)F)C(F)(F)F)c1ccc(-c2ccccc2)cc1`, the T/C (dose: 50.0 mg/kg/injection, schedule: Q01DX009 (ip), vehicle: saline with Tween-80) is reported as 96 % of control, the T/C [7] is reported as 101 % of control and the T/C [8] is reported as 98 % of control. For the same molecule, the T/C [9] was 104 % of control, the T/C [10] was 100 % of control and the T/C [11] was 97 % of control. The T/C [12] was 101 % of control and the T/C (dose: 400.0 mg/kg/injection, schedule: Q04DX003 (ip), vehicle: saline with Tween-80) was 93 % of control.

For `COC(=O)C12Oc3ccc(-c4ccc5c(c4O)C(O)=C4C(=O)CC(C)C(O)C4(C(=O)OC)O5)c(O)c3C(O)=C1C(=O)CC(C)C2O` (stereo unspecified), the T/C (dose: 1.56 mg/kg/injection, schedule: Q01DX009 (ip), vehicle: saline with Tween-80) was 104 % of control, the T/C (dose: 3.13 mg/kg/injection, schedule: Q01DX009 (ip), vehicle: saline with Tween-80) was 100 % of control and the T/C (dose: 6.25 mg/kg/injection, schedule: Q01DX009 (ip), vehicle: saline with Tween-80) was 105 % of control and 91 % of control. The T/C (dose: 12.5 mg/kg/injection, schedule: Q04DX003 (ip), vehicle: saline with Tween-80) was 98 % of control, the T/C (dose: 25.0 mg/kg/injection, schedule: Q04DX003 (ip), vehicle: saline with Tween-80) was 110 % of control and the T/C [7] was 104 % of control.

With `C=C(Cl)COC(=S)S` the T/C (dose: 100.0 mg/kg/injection, schedule: Q01DX001 (ip), vehicle: saline) was 107 % of control, the T/C (dose: 200.0 mg/kg/injection, schedule: Q01DX001 (ip), vehicle: saline) was 103 % of control and the T/C (dose: 400.0 mg/kg/injection, schedule: Q01DX001 (ip), vehicle: saline) was 100 % of control.

`CC(C)NNC(=O)c1ccccc1` was tested, and the T/C [3] was 109 % of control, the T/C [4] was 120 % of control and the T/C [5] was 109 % of control.

For `NNC(=O)C1CC2C=CCC(C2)C1` (stereo unspecified), the T/C (dose: 100.0 mg/kg/injection, schedule: Q01DX001 (ip), vehicle: saline with Tween-80) was 98 % of control and the T/C (dose: 200.0 mg/kg/injection, schedule: Q01DX001 (ip), vehicle: saline with Tween-80) was 92 % of control.

In the case of `CCCCCCCCCC(=O)Oc1nncc(=O)[nH]1`, the T/C (dose: 50.0 mg/kg/injection, schedule: Q01DX009 (ip), vehicle: saline) is reported as 87 % of control, the T/C [6] is reported as 97 % of control and the T/C (dose: 200.0 mg/kg/injection, schedule: Q01DX009 (ip), vehicle: saline) is reported as 104 % of control.

`O=NN(CCCl)C(=O)NC1[C@H](O)CCC[C@@H]1O` (stereo partly specified) was tested, and the T/C (dose: 2.6 mg/kg/injection, schedule: Q01DX001 (ip), vehicle: saline) was 228 % of control, the T/C (dose: 4.0 mg/kg/injection, schedule: Q01DX001 (ip), vehicle: saline) was 385 % of control and the T/C (dose: 6.0 mg/kg/injection, schedule: Q01DX001 (ip), vehicle: saline) was 455 % of control. The T/C (dose: 9.0 mg/kg/injection, schedule: Q01DX001 (ip), vehicle: saline) was 505 % of control, the T/C (dose: 14.0 mg/kg/injection, schedule: Q01DX001 (ip), vehicle: saline) was 340 % of control and 502 % of control and the T/C (dose: 22.0 mg/kg/injection, schedule: Q01DX001 (ip), vehicle: saline) was 256 % of control and 309 % of control.

For `CCN(C(C)=O)c1ccccc1C#N`, the T/C (dose: 75.0 mg/kg/injection, schedule: Q01DX001 (ip), vehicle: saline) was 107 % of control and the T/C (dose: 150.0 mg/kg/injection, schedule: Q01DX001 (ip), vehicle: saline) was 107 % of control.

In the case of `Clc1ccc(/C=N/c2snc3ccccc23)c(Cl)c1`, the T/C (dose: 100.0 mg/kg/injection, schedule: Q04DX002 (ip), vehicle: Klucel (hydroxypropylcellulose) (HPC)) is reported as 95 % of control, the T/C (dose: 200.0 mg/kg/injection, schedule: Q04DX002 (ip), vehicle: Klucel (hydroxypropylcellulose) (HPC)) is reported as 88 % of control and the T/C (dose: 400.0 mg/kg/injection, schedule: Q04DX002 (ip), vehicle: Klucel (hydroxypropylcellulose) (HPC)) is reported as 92 % of control.

With `CN(C)CC(OCCCc1ccccc1)C(Cl)(Cl)Cl` (stereo unspecified) the T/C [9] was 109 % of control and the T/C [11] was 101 % of control.

`O=C1C=C(c2c(-c3ccccc3)[nH]c3ccccc23)C(=O)c2ccccc21` was tested, and the T/C (dose: 100.0 mg/kg/injection, schedule: Q01DX001 (ip), vehicle: other) was 92 % of control and the T/C (dose: 200.0 mg/kg/injection, schedule: Q01DX001 (ip), vehicle: other) was 97 % of control.

With `CCCCSCCO` the T/C [8] was 89 % of control, the T/C [13] was 96 % of control and the T/C [10] was 96 % of control. For the same molecule, the T/C [14] was 93 % of control, the T/C [12] was 107 % of control and the T/C [15] was 86 % of control.

In the case of `CN(C)N=Nc1ccc(C(=O)N/N=C/c2ccc([N+](=O)[O-])cc2)cc1`, the T/C [13] is reported as 100 % of control, the T/C [14] is reported as 94 % of control and the T/C [15] is reported as 99 % of control.

For `O=C(C#Cc1ccccc1)Nc1ccccc1`, the T/C (dose: 100.0 mg/kg/injection, schedule: Q04DX003 (ip), vehicle: Klucel (hydroxypropylcellulose) (HPC)) was 114 % of control, the T/C (dose: 200.0 mg/kg/injection, schedule: Q04DX003 (ip), vehicle: Klucel (hydroxypropylcellulose) (HPC)) was 97 % of control and the T/C (dose: 400.0 mg/kg/injection, schedule: Q04DX003 (ip), vehicle: Klucel (hydroxypropylcellulose) (HPC)) was 98 % of control.
